A short description of series [1]: Solubility of calcipotriol and BDP in different propellant mixtures (Example 1). It counts as physicochemical. The following applies: for dissolution in propellant: 100% DME as the propellant; for dissolution in propellant mixture: ratio of butane to DME of 4:3, in both the propellant and vehicle phases, 67 mg BDP, 13 mg calcipotriol, 20 g vehicle. How it is done:
2×12 100 ml glass bottles fitted with a valve and actuator were filled with compositions containing 67 mg BDP, 13 mg calcipotriol, 20 g vehicle (comprising liquid paraffin, white soft paraffin and PPG-15-stearyl ether) and varying amounts of DME and butane as shown in Table 1. The composition formed a continuous phase and a dispersed phase presumed to be composed of long-chain alkanes (with ≥50 carbon atoms in the chain) present in the white soft paraffin. The dispersed phase sedimented in the bottom portion of the composition on standing. Thus, the top portion of the composition contained only the continuous phase, while the bottom portion of the composition was composed of a mixture of continuous and dispersed phases.
The sprayed samples were placed on a water bath at 40° C. for 5 hours until the propellant had evaporated. The samples were then cooled for 1 hour at room temperature.
Column: Agilent Zorbas Eclipse Plus C18, 150×4.6 mm, 3.5 μm
Mobile phase: acetonitrile/methanol/0.01M (NH4)2HPO4, pH 6.0, 25:45:30 (v/v/v)
Detection: […]. Calculation at 264 nm for calcipotriol and 240 nm for BDP

Series [2] is described as follows: Physical stability by polarized light microscopy (Example 1). It counts as physicochemical. The following applies: compositions left to stand for 4 months. How it is done:
The physical stability of calcipotriol and BDP in the composition was determined by polarized light microscopy.

The nature of series [3]: Chemical stability of calcipotriol/BDP in the presence of different inner lacquers (Example 6). It is filed as physicochemical. How it is done:
Batches of Composition A prepared as described in Example 2 and placed in aluminium spray containers provided with two different types of inner lacquer, an epoxyphenol based lacquer (HOBA 7940/7407) and a polyimide-polyamide based lacquer (HOBA 8460), respectively, were tested for chemical stability of the active ingredients after standing for 1 month at 40° C. by spraying samples of each batch into a glass and subjecting them to HPLC by the procedure described in Example 3.

A short description of series [4]: Chemical stability of calcipotriol/BDP in the presence of different gasket materials (Example 8). It is filed as physicochemical. How it is done:
In order to test the compatibility of the composition with various gasket materials, samples were prepared with Composition E, see Example 2, filled in aluminum spray containers with a polyamide-polyimide inner lacquer and closed with a valve cup crimped to the container body. To each container, 10 pieces or an equivalent amount of gasket test material were added to the spray container and allowed to be submerged in the composition. The containers were stored at 25° C. or 40° C. and tested after 1 and 3 months at 40° C., and after 3 months at 25° C.
After storage, the composition was sprayed out in a glass bottle, and the propellants were allowed to evaporate for 2 days. The non-volatile part of the composition was analyzed for calcipotriol, betamethasone dipropionate and their related organic impurities.
The amount of calcipotriol was determined by HPLC after liquid extraction followed by a controlled isomerization at 50° C. Methyl testosterone was used as the internal standard. The following conditions were used for the HPLC analysis:
Column: LiChrospher RP-18, 125×4 mm, 5 μm
Mobile phase: Acetonitrile/methanol/0.01M (NH4)2PO4 (20:50:30)
Run time: Approx. 9 minutes
The organic impurities related to calcipotriol were determined by HPLC after liquid extraction, using the following conditions:
Column: YMC ODS-AM, 150×4.6 mm, 3 μm
Run time: 2 times the retention time of calcipotriol
The amount of betamethasone dipropionate was determined by HPLC after liquid extraction, using beclomethasone dipropionate as internal standard and the following HPLC conditions:
Column: Superspher RP-18, 75×4 mm, 4 μm
Mobile phase: Acetonitrile/water (50:55)
The organic impurities related to betamethasone dipropionate were extracted by liquid extraction and analyzed by HPLC using the following conditions:
Mobile phase: Acetonitrile/0.05M (NH4)2PO4 pH 7 (50:55)
Run time: Approx. 20 minutes

The conditions of series [5]: one study, M. Hannuksela et al., Contact Dermatitis 1, 1975; cited from earlier work.
Setting [6] is: Composition E in contact with Buna and NPR gaskets.
[7] abbreviates: Composition E in contact with Viton and EPDM gaskets.

Structures are written as SMILES. “Also recorded” adds a separate entry of the source.

On to `C=C1/C(=C\C=C2/CCC[C@]3(C)[C@@H]([C@H](C)/C=C/[C@@H](O)C4CC4)CC[C@@H]23)C[C@@H](O)C[C@@H]1O` [calcipotriol, Calcipotriol], for which the dissolution in propellant entry in series [1] is on record as “completely dissolved”. For the same compound, the “dissolution in propellant mixture” value in series [1] is given as “completely dissolved”. Moreover, in series [2], the “physical stability (recrystallization)” value is recorded as “neither calcipotriol or BDP recrystallize”. Besides, the “chemical stability (in words)” value in series [3] (epoxyphenol based inner lacquer of the spray container) is recorded as “unacceptably degraded; also recorded: unacceptable chemical degradation”; in series [3] (polyimide-polyamide based inner lacquer), “acceptable; also recorded: satisfactory”. Also, the “stability (in words)” value is “decomposition” in series [4] (setting [6]) and “did not have negative impact” in series [4] (setting [7]).

For `CCC(=O)OCC(=O)[C@@]1(OC(=O)CC)[C@@H](C)C[C@H]2[C@@H]3CCC4=CC(=O)C=C[C@]4(C)[C@@]3(F)[C@@H](O)C[C@@]21C` [betamethasone dipropionate], in series [1], the dissolution in propellant result is “completely dissolved” and the “dissolution in propellant mixture” value is “completely dissolved”. The “physical stability (recrystallization)” value in series [2] is “neither calcipotriol or BDP recrystallize”. In addition, the “chemical stability: effect of the composition of the inner lacquers” value in series [3] (epoxyphenol vs polyimide-polyamide lacquer) is “much less affected”. Further, the “stability (in words)” value in series [4] (setting [6]) is “decomposition”. For the same compound, the “stability (in words)” value in series [4] (setting [7]) is recorded as “did not have negative impact”.

`CC(O)CO` (centres unmarked) [propylene glycol]: in series [5], the “number of irritant reactions” value is 12.5%.

(Values after US10660908B2, “Pharmaceutical spray composition comprising a vitamin D analogue and a corticosteroid” (LEO Pharma A/S, priority 2010, dated 2020).)
